Results: patent US20230391786A1, “cGAS INHIBITORS” (Eli Lilly and Company, priority 2022, published 2023)

How the values were obtained:
[1] = system: cGAS activity in THP1 cells (IFNb as marker); assay: Cellular assay to measure cGAS activity (IFNb production in PMA-differentiated THP1 cells stimulated by RDG-Adenovirus-GFP); type: cell-based, human; conditions: Homo sapiens, THP-1, THP1 cells, PMA differentiated, RDG-Adenovirus-GFP 1000 MOI, IFNb AlphaLISA, overnight incubation; read-out: IC50 (μM), Cellular assay for Compounds 95-348
In short: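 The readout is secreted IFNb measured by AlphaLISA after overnight compound exposure. THP1 cells, differentiated with PMA for 24 h and rested overnight, were infected with RDG-Adenovirus-GFP (1000 MOI, 4 h) before compounds were added; IC50 came from a 4-parameter logistic fit of inhibition against log concentration.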

recombinant human cGAS = recombinant human cGAS (Homo sapiens (Human), UniProt Q8N884); assay: In vitro inhibition assay of cGAS activity (cGAMP production, RapidFire mass spectrometry); type: biochemical; conditions: 10 nM recombinant human cGAS, 60 nM 75-bp dsDNA, ATP, GTP, room temperature 3 hours, read-out: IC50 (μM), In vitro inhibition assay for Compounds 95-348
In short: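 Product cGAMP was quantified by RapidFire MS against a difluoro-cGAMP internal standard after a formic acid quench. The reaction contained 10 nM recombinant full-length human cGAS, 75-bp dsDNA (60 nM), ATP and GTP (50 μM) and ran for 3 h at room temperature. IC50 values came from 4-parameter nonlinear regression.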

Sequence of recombinant human cGAS (Q8N884 whole entry): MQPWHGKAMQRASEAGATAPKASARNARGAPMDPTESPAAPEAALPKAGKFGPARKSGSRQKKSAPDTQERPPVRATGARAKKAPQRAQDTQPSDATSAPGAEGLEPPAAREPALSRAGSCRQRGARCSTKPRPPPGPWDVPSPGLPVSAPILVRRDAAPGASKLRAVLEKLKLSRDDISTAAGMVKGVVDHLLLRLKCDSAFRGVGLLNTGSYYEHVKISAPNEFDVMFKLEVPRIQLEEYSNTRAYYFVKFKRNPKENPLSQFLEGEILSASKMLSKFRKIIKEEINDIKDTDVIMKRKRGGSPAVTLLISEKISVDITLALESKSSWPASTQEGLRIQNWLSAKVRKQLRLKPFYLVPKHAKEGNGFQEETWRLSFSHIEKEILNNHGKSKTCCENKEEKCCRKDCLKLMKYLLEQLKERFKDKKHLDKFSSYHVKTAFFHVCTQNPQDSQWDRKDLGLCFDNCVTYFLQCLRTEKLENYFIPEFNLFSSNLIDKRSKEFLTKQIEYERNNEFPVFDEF

SMILES	IC50 [1]	IC50 (recombinant human cGAS)
CC(=S)NCc1[nH]c2c(Cl)c(Cl)ccc2c1-c1cn[nH]c1 [Example 129, N-[[6,7-Dichloro-3-(1H-pyrazol-4-yl)-1H-indol-2-yl]methyl]thioacetamide]	0.895 µM	0.0552 µM
OCC(CO)COc1cc(Cl)c(Cl)c2[nH]cc(-c3cn[nH]c3)c12 [Example 194, 2-[[6,7-Dichloro-3-(1H-pyrazol-4-yl)-1H-indol-4-yl]oxymethyl]propane-1,3-diol]	1.29 µM	0.0184 µM
CN1CCOC(C(=O)N2CCn3c(c(-c4cn[nH]c4)c4c(OCC#N)cc(Cl)c(Cl)c43)C2)C1 (centres unmarked) [Example 294, 2-((6,7-Dichloro-2-(4-methylmorpholine-2-carbonyl)-10-(1H-pyrazol-4-yl)-1,2,3,4-tetrahydropyrazino[1,2-a]indol-9-yl)oxy)acetonitrile]	0.366 µM	0.0479 µM
O=C(NCc1[nH]c2c(Cl)c(Cl)ccc2c1-c1cn[nH]c1)c1nnco1 [Example 165, N-[[6,7-Dichloro-3-(1H-pyrazol-4-yl)-1H-indol-2-yl]methyl]-1,3,4-oxadiazole-2-carboxamide]	1.32 µM	0.0894 µM
OCCn1cc(-n2cc(-c3cn[nH]c3)c3ccc(Cl)c(F)c32)nn1 [Example 218, 2-[4-[6-Chloro-7-fluoro-3-(1H-pyrazol-4-yl)indol-1-yl]triazol-1-yl]ethanol]	3.27 µM	0.0679 µM
FC(F)CCNc1cc(Cl)c(Cl)c2[nH]cc(-c3cn[nH]c3)c12 [Example 188, 6,7-Dichloro-N-(3,3-difluoropropyl)-3-(1H-pyrazol-4-yl)-1H-indol-4-amine]	2.45 µM	0.0541 µM
O[C@H]1CC[C@@H](Oc2cc(Cl)c(Cl)c3[nH]cc(-c4cn[nH]c4)c23)C1 (racemic) [Example 100, Cis-3-((6,7-Dichloro-3-(1H-pyrazol-4-yl)-1H-indol-4-yl)oxy)cyclopentan-1-ol (racemic mixture)]	> 10 µM	0.0356 µM
O=C(Nc1cc(Cl)cc2[nH]cc(-c3cn[nH]c3)c12)C(F)F [Example 219, N-(6-Chloro-3-(1H-pyrazol-4-yl)-1H-indol-4-yl)-2,2-difluoroacetamide]	0.35 µM	0.0348 µM
CCC(=O)NCc1[nH]c2c(Cl)c(Cl)ccc2c1-c1cn[nH]c1 [Example 163, N-[[6,7-Dichloro-3-(1H-pyrazol-4-yl)-1H-indol-2-yl]methyl]propanamide]	2.09 µM	0.076 µM
CCN1CCn2c(c(-c3cn[nH]c3)c3c(NC(=O)C(F)F)cc(Cl)c(Cl)c32)C1=O [Example 251, N-[6,7-Dichloro-2-ethyl-1-oxo-10-(1H-pyrazol-4-yl)-3,4-dihydropyrazino[1,2-a]indol-9-yl]-2,2-difluoro-acetamide]	1.36 µM	0.0265 µM
OCCc1cc(-n2cc(-c3cn[nH]c3)c3ccc(Cl)c(Cl)c32)on1 [Example 211, 2-[5-[6,7-Dichloro-3-(1H-pyrazol-4-yl)indol-1-yl]isoxazol-3-yl]ethanol]	2.28 µM	0.0342 µM
O=C(Nc1cc(Cl)c(Cl)c2[nH]cc(-c3cn[nH]c3)c12)C(O)CO (centres unmarked) [Example 185, N-[6,7-Dichloro-3-(1H-pyrazol-4-yl)-1H-indol-4-yl]-2,3-dihydroxy-propanamide]	3.44 µM	0.077 µM
CC(=O)N[C@@H]1CCn2c1c(-c1cn[nH]c1)c1c(OCC#N)cc(Cl)c(Cl)c12 [Example 234, (R)—N-(5,6-Dichloro-8-(cyanomethoxy)-9-(1H-pyrazol-4-yl)-2,3-dihydro-1H-pyrrolo[1,2-a]indol-1-yl)acetamide]	1.72 µM	0.0249 µM
CC(=O)N1CCn2c(c(-c3cn[nH]c3)c3c(NC(=O)CO)cc(Cl)c(Cl)c32)C1 [Example 146, N-(2-Acetyl-6,7-dichloro-10-(1H-pyrazol-4-yl)-1,2,3,4-tetrahydropyrazino[1,2-a]indol-9-yl)-2-hydroxyacetamide]	> 10 µM	0.0918 µM
C[C@@H](O)C(=O)NCc1[nH]c2c(Cl)c(Cl)ccc2c1-c1cn[nH]c1 [Example 167, (R)—N-((6,7-Dichloro-3-(1H-pyrazol-4-yl)-1H-indol-2-yl)methyl)-2-hydroxypropanamide]	1.86 µM	0.0672 µM
O=C1COCCN1CCC(=O)N1CCn2c(c(-c3cn[nH]c3)c3ccc(Cl)c(Cl)c32)C1 [Example 304, 4-(3-(6,7-Dichloro-10-(1H-pyrazol-4-yl)-3,4-dihydropyrazino[1,2-a]indol-2(1H)-yl)-3-oxopropyl)morpholin-3-one]	8.47 µM	0.0351 µM
N#CCOc1cc(Cl)c(Cl)c2[nH]nc(-c3cn[nH]c3)c12 [Example 249, 2-[[6,7-Dichloro-3-(1H-pyrazol-4-yl)-1H-indazol-4-yl]oxy]acetonitrile]	2.32 µM	0.0306 µM

Continued, values first:

IC50 [1]	IC50 (recombinant human cGAS)	SMILES
0.902 µM	0.00338 µM	N#CCOc1cc(Cl)c(Cl)c2c1c(-c1cn[nH]c1)c1n2CC[C@@H]1NC(=O)CO [Example 344, (S)—N-(5,6-Dichloro-8-(cyanomethoxy)-9-(1H-pyrazol-4-yl)-2,3-dihydro-1H-pyrrolo[1,2-a]indol-1-yl)-2-hydroxyacetamide]
> 10 µM	0.0642 µM	COCCC(=O)NC1CCn2c1c(-c1cn[nH]c1)c1ccc(Cl)c(Cl)c12 (centres unmarked) [Example 240, N-(5,6-Dichloro-9-(1H-pyrazol-4-yl)-2,3-dihydro-1H-pyrrolo[1,2-a]indol-1-yl)-3-methoxypropanamide]
2.41 µM	0.026 µM	O=C(CO)NC1Cc2c(-c3cn[nH]c3)c3ccc(Cl)c(Cl)c3n2C1 (centres unmarked) [Example 154, N-(5,6-Dichloro-9-(1H-pyrazol-4-yl)-2,3-dihydro-1H-pyrrolo[1,2-a]indol-2-yl)-2-hydroxyacetamide]
7.9 µM	0.0423 µM	CC(=O)N(C)CCC(=O)N1CCn2c(c(-c3cn[nH]c3)c3ccc(Cl)c(Cl)c32)C1 [Example 308, N-(3-(6,7-Dichloro-10-(1H-pyrazol-4-yl)-3,4-dihydropyrazino[1,2-a]indol-2(1H)-yl)-3-oxopropyl)-N-methylacetamide]
> 10 µM	0.464 µM	OCCC1CCn2c1c(-c1cn[nH]c1)c1ccc(Cl)c(Cl)c12 (single isomer, unassigned; isomer 1) [Example 242, 2-(5,6-Dichloro-9-(1H-pyrazol-4-yl)-2,3-dihydro-1H-pyrrolo[1,2-a]indol-1-yl)ethan-1-ol isomer 1]
3.61 µM	0.0165 µM	CNC(=O)CCS(=O)(=O)NC1CCc2c(-c3cn[nH]c3)c3ccc(Cl)c(Cl)c3n2C1 (centres unmarked) [Example 118, 3-(N-(3,4-Dichloro-10-(1H-pyrazol-4-yl)-6,7,8,9-tetrahydropyrido[1,2-a]indol-7-yl)sulfamoyl)-N-methylpropanamide]
> 10 µM	0.0882 µM	NCCOCCOCCOCCC(=O)NC1CCc2c(-c3cn[nH]c3)c3ccc(Cl)c(Cl)c3n2C1 (centres unmarked) [Example 124, 3-[2-[2-(2-Aminoethoxy)ethoxy]ethoxy]-N-[3,4-dichloro-10-(1H-pyrazol-4-yl)-6,7,8,9-tetrahydropyrido[1,2-a]indol-7-yl]propanamide]
5.56 µM	0.0196 µM	CC(=O)NCC(=O)NC1CCc2c(-c3cn[nH]c3)c3ccc(Cl)c(Cl)c3n2C1 (centres unmarked) [Example 107, 2-Acetamido-N-[3,4-dichloro-10-(1H-pyrazol-4-yl)-6,7,8,9-tetrahydropyrido[1,2-a]indol-7-yl]acetamide]
